Results as given in patent US20260217701A1, “SELECTIVE BET INHIBITORS AND USES THEREOF” (Tay Therapeutics Limited, priority 2022, published 2026).
Values joined by “and” are separate entries in the source; they are usually repeats but may differ in a detail not shown here. Equal entries are not always repeated. Where two headings read alike, the source gives them in different places.

Assays:
CXCL10 = CXCL10 release from IFN-γ stimulated human PBMCs (ELISA); type: cell-based; settings: for IC50: Homo sapiens, PBMC
Method: To analyze the selectivity of Compound A for CXCL10, human PBMCs were similarly thawed, and compounds were similarly prepared (final compound concentration ranged from 30,000 nM to 0.005 nM, with a final DMSO concentration per well of 0.3%). PBMCs were seeded into 96-well plates at a concentration of 2×10^5 cells/well (volume of 190 μL) and treated with various concentrations of Compound A for 1 hour. The PBMCs were then stimulated with IFN-γ (15 ng/ml final concentration in a volume of 10 μL), and supernatants were collected 24 hours after the exposure to IFN-γ. Levels of CXCL10 in the supernatant were then analyzed by ELISA (Invitrogen).

[1] = CIA study: pharmacokinetics / plasma concentration after oral administration; type: in vivo, Lewis rats; settings: for concentration at 21 day: oral
[2] = CIA-induced animals, day 0, 3 mg/kg, average
[3] = CIA-induced animals, day 0, 3 mg/kg, individual test subjects
[4] = CIA-induced animals, day 21, 3 mg/kg, average
[5] = CIA-induced animals, day 21, 3 mg/kg, individual test subjects

Q: Which results are given for `Cn1cc(-c2ccccc2)c(-c2cn(C)c(=O)c3[nH]c(-c4cnn(C(F)(F)F)c4)cc23)cc1=O` [Compound A, 6-methyl-4-(1-methyl-2-oxo-5-phenyl-1,2-dihydropyridin-4-yl)-2-(1-(trifluoromethyl)-1H-pyrazol-4-yl)-1,6-dihydro-7H-pyrrolo[2,3-c]pyridin-7-one]?
A: Percent Inhibition Relative to Control (CXCL10) (CXCL10; Compound Conc. 10 μM, Donors 1-6 two values each, Donors 7-10 three values each): 101.41%; IC50 (CXCL10; Average preliminary biomarker assay, read-out: CXCL10 IC50 Mean): 1 µM; IC50 (CXCL10; Preliminary biomarker assay, Test Subject 1, read-out: CXCL 10 IC50): 1 µM; IC50 (CXCL10; ELISA, read-out: Selectivity (IC50) CXCL10): 3.64 µM; inhibition of CXCL10 (CXCL10; human PBMCs, IFN-γ, 24 hours): minimal inhibition; AUClast/D (Mean) [1, 2]: 509 mg·h/mL; AUC—%Extrap—obs (Mean) [1, 2]: 14.0%; AUCInf [1, 3]: 1.393 µg·h/mL and 1.454 µg·h/mL; AUClast [1, 3]: 1.25 µg·h/mL and 1.264 µg·h/mL; AUC—%Extrap—obs [1, 3]: 18.6% and 10.3% and 13.1%; Cmax [1, 3]: 0.0779 µg/mL and 0.0826 µg/mL; MRTInf—obs [1, 3]: 10.7 h and 11.8 h; T1/2 [1, 3]: 7.03 h and 7.60 h; AUClast/D (Mean) [1, 4]: 246 mg·h/mL; AUC—%Extrap—obs (Mean) [1, 4]: 17.3%; MRTlnf—obs (Mean) [1, 4]: 13.5 h; AUCInf [1, 5]: 1.059 µg·h/mL and 0.985 µg·h/mL; AUClast [1, 5]: 0.826 µg·h/mL and 0.784 µg·h/mL; AUC—%Extrap—obs [1, 5]: 9.67% and 22.0% and 20.4%; Cmax [1, 5]: 0.0512 µg/mL and 0.0457 µg/mL; MRTInf—obs [1, 5]: 15.5 h and 14.9 h; T1/2 [1, 5]: 10.3 h and 9.68 h; Plasma Concentration ([1]; Day 21, CIA rats, 1 mg/kg): 0.0128 µg/mL and 0.0145 µg/mL and 0.0139 µg/mL and 0.0143 µg/mL and 0.0211 µg/mL and 0.0206 µg/mL; Plasma Concentration ([1]; Day 21, CIA rats, 10 mg/kg): 0.181 µg/mL and 0.24 µg/mL and 0.23 µg/mL and 0.264 µg/mL and 0.174 µg/mL and 0.255 µg/mL and 0.248 µg/mL; concentration at 21 day ([1]; Lewis, rat, plasma, 1 mg/kg, Day 21, CIA rats, 1 mg/kg, read-out: Plasma Concentration): 0.013 µg/mL; concentration at 21 day ([1]; Lewis, rat, plasma, 1 mg/kg, Group 5 (CIA + Compound A 1 mg/kg), read-out: Day 21 Mean Plasma Concentration): 0.0155 µg/mL; concentration at 21 day ([1]; Lewis, rat, plasma, 3 mg/kg, Group 6 (CIA + Compound A 3 mg/kg), read-out: Day 21 Mean Plasma Concentration): 0.0495 µg/mL; concentration at 21 day ([1]; Lewis, rat, plasma, 10 mg/kg, Day 21, CIA rats, 10 mg/kg, read-out: Plasma Concentration): 0.232 µg/mL; concentration at 21 day ([1]; Lewis, rat, plasma, 10 mg/kg, Group 7 (CIA + Compound A 10 mg/kg), read-out: Day 21 Mean Plasma Concentration): 0.221 µg/mL; AUC(0-inf) ([1]; Lewis, rat, plasma, po, 3 mg/kg, CIA-induced animals, day 0, 3 mg/kg, average, read-out: AUCInf (Mean)): 1.8 µg·h/mL; AUC(0-t) ([1]; Lewis, rat, plasma, po, 3 mg/kg, CIA-induced animals, day 0, 3 mg/kg, average, read-out: AUClast (Mean)): 1.53 µg·h/mL; Cmax ([1]; Lewis, rat, plasma, po, 3 mg/kg, CIA-induced animals, day 0, 3 mg/kg, average, read-out: Cmax (Mean)): 0.095 µg/mL; MRT inf ([1]; Lewis, rat, plasma, po, 3 mg/kg, CIA-induced animals, day 0, 3 mg/kg, average, read-out: MRTInf—obs (Mean)): 12.2 h; half-life ([1]; Lewis, rat, plasma, po, 3 mg/kg, CIA-induced animals, day 0, 3 mg/kg, average, read-out: T1/2 (Mean) (converted)): 7.94 h; Tmax ([1]; Lewis, rat, plasma, po, 3 mg/kg, CIA-induced animals, day 0, 3 mg/kg, average, read-out: Tmax (Mean)): 5.33 h; AUC(0-inf) ([1]; Lewis, rat, plasma, po, 3 mg/kg, CIA-induced animals, day 0, 3 mg/kg, individual test subjects, read-out: AUCInf): 2.54 µg·h/mL; AUC(0-t) ([1]; Lewis, rat, plasma, po, 3 mg/kg, CIA-induced animals, day 0, 3 mg/kg, individual test subjects, read-out: AUClast): 2.07 µg·h/mL; Cmax ([1]; Lewis, rat, plasma, po, 3 mg/kg, CIA-induced animals, day 0, 3 mg/kg, individual test subjects, read-out: Cmax): 0.123 µg/mL; MRT inf ([1]; Lewis, rat, plasma, po, 3 mg/kg, CIA-induced animals, day 0, 3 mg/kg, individual test subjects, read-out: MRTInf—obs): 14.1 h; half-life ([1]; Lewis, rat, plasma, po, 3 mg/kg, CIA-induced animals, day 0, 3 mg/kg, individual test subjects, read-out: T1/2 (converted)): 9.19 h; Tmax ([1]; Lewis, rat, plasma, po, 3 mg/kg, CIA-induced animals, day 0, 3 mg/kg, individual test subjects, read-out: Tmax): 6 h; AUC(0-t) ([1]; Lewis, rat, plasma, po, 3 mg/kg, CIA-induced animals, day 21, 3 mg/kg, average, read-out: AUClast (Mean)): 0.738 µg·h/mL; Cmax ([1]; Lewis, rat, plasma, po, 3 mg/kg, CIA-induced animals, day 21, 3 mg/kg, average, read-out: Cmax (Mean)): 0.0484 µg/mL; half-life ([1]; Lewis, rat, plasma, po, 3 mg/kg, CIA-induced animals, day 21, 3 mg/kg, average, read-out: T1/2 (Mean) (converted)): 8.9 h; Tmax ([1]; Lewis, rat, plasma, po, 3 mg/kg, CIA-induced animals, day 21, 3 mg/kg, average, read-out: Tmax (Mean)): 5.33 h; AUC(0-inf) ([1]; Lewis, rat, plasma, po, 3 mg/kg, CIA-induced animals, day 21, 3 mg/kg, individual test subjects, read-out: AUCInf): 0.668 µg·h/mL; AUC(0-t) ([1]; Lewis, rat, plasma, po, 3 mg/kg, CIA-induced animals, day 21, 3 mg/kg, individual test subjects, read-out: AUClast): 0.604 µg·h/mL; Cmax ([1]; Lewis, rat, plasma, po, 3 mg/kg, CIA-induced animals, day 21, 3 mg/kg, individual test subjects, read-out: Cmax): 0.0483 µg/mL
